Reference: patent publication US20210052600A1, “THERAPEUTIC AGENTS FOR STRESS URINARY INCONTINENCE AND INCOTINENCE OF FECES” (Takeda Pharmaceutical Company Limited, priority 2017, published 2021)

Legend:
urethral resistance [1] = experiment: Rat urethral resistance (LPP) measured by high speed infusion of saline into the bladder; type: in vivo; conditions: for LPP Post: 30 minutes after administration; for LPP Post / LPP Increase / LPP Pre: mean ± SEM; for LPP Increase: Post minus Pre; for LPP Pre: before administration
Text: The rats were anesthetized with isoflurane. Their spinal cord was transected at the T8-T9 (the eighth thoracic cord—the ninth thoracic cord) level. After opening of the bladder dome, two polyethylene tubes (PE-100) were inserted into the bladder. The incised portion of the bladder was closed with sutures, and the other incisions were also closed. The rats were placed in Bollman cages. The catheter for intravesical pressure measurement was connected to a pressure transducer, while the catheter for saline filling was connected to a syringe filled with Evans Blue-dyed saline. Change in intravesical pressure was recorded using the pressure transducer via an electric signal amplifier and an analog-to-digital converter. After recovery of the animals from anesthesia, the intravesical pressure measurement was started, and saline was infused at a speed of 0.1 mL/sec into the bladder using an infusion pump. The infusion was stopped when the leakage of the saline from the urethral orifice was observed. Immediately thereafter, the bladder was emptied by releasing the pressure. In this operation, the peak of recorded intravesical pressure during the saline infusion was used as LPP in this Example. This measurement was repeated, and the average LPP from the last three measurements was used as the LPP value of the trial. The mean from 2 such trials was used as a Pre value. 0.5% MC was used as the vehicle. […] The difference in LPP from the Pre value (increased amount of LPP) was calculated. Regarding change in LPP before and after drug administration, the differences between the mean values of the drug-treated and vehicle-treated groups were analyzed by the one-tailed Williams' test.

urethral resistance [2] = experiment: Urethral resistance (LPP) during intravesical pressure rise by electrical stimulation of rat abdominal muscle; type: in vivo; conditions: mean ± SEM; for LPP Post: 30 minutes after administration; for LPP Increase: Post minus Pre; for LPP Pre: before administration
Experimental: Fifty six female rats of Sprague-Dawley strain (hereinafter, referred to as “SD strain”) were used. The rats were anesthetized with urethane, and their spinal cord was transected at the T8-T9 (the eighth thoracic cord—the ninth thoracic cord) level for the elimination of reflex voiding. Isoflurane inhalation was added, if necessary. After opening of the abdomen, a catheter (PE-100) was inserted into the bladder. In order to secure reduced urethral resistance, unilateral nerve to iliococcygeus and pubococcygeus muscles was transected. For intraduodenal administration, another catheter (PE-50) was inserted into the duodenum in advance. The abdominal muscle and skin were each closed with sutures. Two (right and left) sites of abdominal skin near the diaphragm were cut to expose abdominal muscle. The bladder was emptied through the catheter, followed by the injection of 0.2 to 0.3 mL of 0.1% Evans blue solution. Change in intravesical pressure was recorded using the bladder catheter via a pressure transducer, an electric signal amplifier, and an analog-to-digital converter. While change in intravesical pressure was recorded, the presence or absence of fluid leakage from the urethral orifice was observed under the electrical stimulation of the exposed abdominal muscle using an electrical stimulator and an isolator. […] The peak of the intravesical pressure during the stimulation of the abdominal muscle was measured, and the lowest pressure at which the fluid leakage was observed among the trials was defined as leak point pressure (hereinafter, referred to as “LPP”) for the electrical abdominal muscle stimulation method and used as an index for urethral resistance. Each drug was evaluated for its effect by comparing LPP before drug administration with that after drug administration. […] The drugs were suspended in 0.5% methylcellulose solution (MC). […] LPP was measured again 30 minutes after administration. Regarding change in LPP before and after drug administration, the differences between the mean values of the drug-treated and vehicle groups were analyzed by the one-tailed Williams' test.

[3] = Plasma concentration of Compound A in healthy female volunteers after a single oral dose of Compound A′; conditions: no unit in table (ng/mL)
Experimental: In each period, the test subjects received any of Treatments A to D once according to Table 10, and change in the plasma concentration of the administered compound was measured over 24 hours after each Treatment.
Specifically, 100 mL of the injectable water containing 20 mg or 90 mg of Compound A′ based on its free form was supplemented with a sweetener, and this solution was orally administered as Compound A′. As a placebo for Compound A′, 100 mL of the injectable water was supplemented with a sweetener, and this solution was orally administered.

[4] = 20 mg single oral dose, Predose
[5] = 90 mg single oral dose, Predose

Structure (SMILES): CC(C)N(C)c1cnc2c(n1)OCCNC2.Cl [Compound A′, N-methyl-N-(1-methylethyl)-6,7,8,9-tetrahydropyrazino[2,3-f][1,4]oxazeine-3-amine]
- LPP Post (urethral resistance [1]; 1.25 mg/kg p.o.): 63.2 ± 4.7 cmH2O
- LPP Increase (urethral resistance [1]; 1.25 mg/kg p.o.): 5.5 ± 3.0 cmH2O
- LPP Pre (urethral resistance [1]; 1.25 mg/kg p.o.): 57.7 ± 3.6 cmH2O
- LPP Post (urethral resistance [1]; 2.5 mg/kg p.o.): 70.2 ± 3.8 cmH2O
- LPP Increase (urethral resistance [1]; 2.5 mg/kg p.o.): 10.9 ± 2.2 cmH2O
- LPP Pre (urethral resistance [1]; 2.5 mg/kg p.o.): 59.2 ± 2.6 cmH2O
- LPP Post (urethral resistance [1]; 5 mg/kg p.o.): 75.9 ± 3.3 cmH2O
- LPP Increase (urethral resistance [1]; 5 mg/kg p.o.): 15.3 ± 3.7 cmH2O
- LPP Pre (urethral resistance [1]; 5 mg/kg p.o.): 60.6 ± 3.6 cmH2O
- LPP Post (urethral resistance [1]; 10 mg/kg p.o.): 78.4 ± 5.6 cmH2O
- LPP Increase (urethral resistance [1]; 10 mg/kg p.o.): 21.7 ± 4.4 cmH2O
- LPP Pre (urethral resistance [1]; 10 mg/kg p.o.): 56.7 ± 2.4 cmH2O
- LPP Post (urethral resistance [1]; 20 mg/kg p.o.): 77.7 ± 3.5 cmH2O
- LPP Increase (urethral resistance [1]; 20 mg/kg p.o.): 21.5 ± 3.4 cmH2O
- LPP Pre (urethral resistance [1]; 20 mg/kg p.o.): 56.3 ± 5.1 cmH2O
- LPP10, the dose that increases LPP by 10 cm H2O (urethral resistance [1]; oral administration, high speed saline infusion method): 1.6 mg/kg
- LPP Post (urethral resistance [2]; 0.3 mg/kg i.d.): 55.0 ± 5.4 cmH2O
- LPP Increase (urethral resistance [2]; 0.3 mg/kg i.d.): 7.8 ± 3.2 cmH2O
- LPP Pre (urethral resistance [2]; 0.3 mg/kg i.d.): 47.2 ± 5.7 cmH2O
- LPP Post (urethral resistance [2]; 1 mg/kg i.d.): 61.5 ± 4.9 cmH2O
- LPP Increase (urethral resistance [2]; 1 mg/kg i.d.): 14.2 ± 2.7 cmH2O
- LPP Pre (urethral resistance [2]; 1 mg/kg i.d.): 47.3 ± 5.0 cmH2O
- LPP Post (urethral resistance [2]; 3 mg/kg i.d.): 77.3 ± 8.1 cmH2O
- LPP Increase (urethral resistance [2]; 3 mg/kg i.d.): 29.7 ± 5.5 cmH2O
- LPP Pre (urethral resistance [2]; 3 mg/kg i.d.): 47.6 ± 3.1 cmH2O
- plasma concentration of compound A, Mean ([3]; 20 mg single oral dose, 0.5 hr): 29.21
- plasma concentration of compound A, Median ([3]; 20 mg single oral dose, 0.5 hr): 28.40
- plasma concentration of compound A, Mean ([3]; 20 mg single oral dose, 1 hr): 25.19
- plasma concentration of compound A, Median ([3]; 20 mg single oral dose, 1 hr): 24.10
- plasma concentration of compound A, Mean ([3]; 20 mg single oral dose, 2 hr): 20.46
- plasma concentration of compound A, Median ([3]; 20 mg single oral dose, 2 hr): 19.20
- plasma concentration of compound A, Mean ([3]; 20 mg single oral dose, 3 hr): 14.38
- plasma concentration of compound A, Median ([3]; 20 mg single oral dose, 3 hr): 13.10
- plasma concentration of compound A, Mean ([3]; 20 mg single oral dose, 6 hr): 3.476
- plasma concentration of compound A, Median ([3]; 20 mg single oral dose, 6 hr): 3.760
- plasma concentration of compound A, Mean ([3]; 20 mg single oral dose, 8 hr): 1.416
- plasma concentration of compound A, Median ([3]; 20 mg single oral dose, 8 hr): 1.590
- plasma concentration of compound A, Mean ([3]; 20 mg single oral dose, 12 hr): 0.1327
- plasma concentration of compound A, Median ([3]; 20 mg single oral dose, 12 hr): 0.000
- plasma concentration of compound A, Mean [3, 4]: 0.000
- plasma concentration of compound A, Median [3, 4]: 0.000
- plasma concentration of compound A, Mean ([3]; 90 mg single oral dose, 0.5 hr): 127.3
- plasma concentration of compound A, Median ([3]; 90 mg single oral dose, 0.5 hr): 114.0
- plasma concentration of compound A, Mean ([3]; 90 mg single oral dose, 1 hr): 126.0
- plasma concentration of compound A, Median ([3]; 90 mg single oral dose, 1 hr): 113.0
- plasma concentration of compound A, Mean ([3]; 90 mg single oral dose, 2 hr): 152.8
- plasma concentration of compound A, Median ([3]; 90 mg single oral dose, 2 hr): 145.0
- plasma concentration of compound A, Mean ([3]; 90 mg single oral dose, 3 hr): 122.4
- plasma concentration of compound A, Median ([3]; 90 mg single oral dose, 3 hr): 127.0
- plasma concentration of compound A, Mean ([3]; 90 mg single oral dose, 6 hr): 52.81
- plasma concentration of compound A, Median ([3]; 90 mg single oral dose, 6 hr): 47.30
- plasma concentration of compound A, Mean ([3]; 90 mg single oral dose, 8 hr): 24.69
- plasma concentration of compound A, Median ([3]; 90 mg single oral dose, 8 hr): 20.30
- plasma concentration of compound A, Mean ([3]; 90 mg single oral dose, 12 hr): 5.612
- plasma concentration of compound A, Median ([3]; 90 mg single oral dose, 12 hr): 4.450
- plasma concentration of compound A, Mean [3, 5]: 0.000
- plasma concentration of compound A, Median [3, 5]: 0.000
